Measurements: patent US8575214B2, “MGlu 2/3 agonists” (Eli Lilly and Company, priority 2012, dated 2013)

Tests used:
[1] = test system: male, Sprague-Dawley rats; assay: Reversal of phencyclidine (PCP)-induced hyperlocomotor activity in rats; format: in vivo, rat
Excerpt: Motor activity is monitored by placing individual male, Sprague-Dawley (Harlan, Indianapolis, Ind.) rats in transparent, plastic shoe-box cages of the dimensions 45×25×20 cm, with 1 cm depth of wood chips as bedding, and a metal grill on top of the cage. Motor monitors (Kinder Scientific) consist of a rectangular rack of 12 photobeams arranged in an 8×4 formation, (or a high density grouping of 22 in a 15×7 pattern) at a height of 5 cm, with a second rack (for measuring rearing behaviors) at a height of 15 cm. The shoe box cage is placed inside of these racks, with the racks on a 3 foot high tabletop in an isolated room. A compound of the invention (active) is dosed (intraperitoneal route) within a range of 0.3-10 mg/kg, 30 minutes prior to a 5 mg/kg challenge dose of phencyclidine (PCP). A compound of the invention (prodrug) is orally dosed within a range of 0.3-30 mg/kg, in overnight fasted rats, 4 hours prior to a 5 mg/kg challenge dose of PCP. On the test day, rats are placed in the test cage and allowed to acclimate for 30 minutes prior to PCP challenge; rats are monitored for an additional 60 minutes following PCP administration.
Data analysis and ED50 calculations are conducted using GraphPad Prism (San Diego, Calif. USA). Power analyses have determined that 8-10 rats per group are needed to have appropriate statistical power for detecting treatment differences (power=0.8). A one-way analysis of variance (ANOVA) with a post-hoc Dunnett's multiple comparison test is conducted on the total 60 minute locomotor activity. ED50 calculations are performed using non-linear regression curve fitting on percent reversal transformed data for each dose.

[2] = test system: Male Fischer F-344 rats; assay: Attenuation of stress-induced hyperthermia in rats; format: in vivo; conditions: rat, 1-hr pretreatment, relative to vehicle response
Excerpt: In many anxiety disorders, hyperthermia occurs as part of the pathology and is considered a symptom of the disease. Compounds which attenuate stress-induced hyperthermia in animals are believed to be useful in treating anxiety disorders in humans. Generalized anxiety disorder and post traumatic stress disorder are among the disorders that may be treated with such compounds. The conventional and minimally-invasive method for analyzing stress-induced hyperthermia is by measuring body temperature, and stress-induced increases in body temperature, via rectal thermometer. Male Fischer F-344 rats (Harlan, Indianapolis, Ind., USA) weighing between 275-350 g are tested. All animals are individually-housed with food and automated water available ad libitum, and maintained on a 12 h light/dark cycle (lights on at 06:00). Animals are fasted for approximately 12-18 hours before the experiment, which is conducted during the light phase. Rats are dosed intraperitoneal (IP) in a dose volume of 1 mL/kg with compounds of the invention in the range of 0.3, 1, 3, and 10, mg/kg. […]
After the pretreatment period, rats are taken individually to a brightly lit adjacent room where baseline body temperatures are determined by insertion of a rectal probe lubricated with mineral oil. Body temperature is assessed using a […] […] Ten minutes later a second body temperature measurement is recorded (T2). […]

[3] = molecular target: T1, hPepT1 (Homo sapiens, UniProt P46059); assay: In vitro PepT1 GlySar inhibition screen and IC50 determination; format: cell-based; conditions: PepT1 transiently transfected HeLa cells
T1 construct: expressed in transfected cells; host or cells: HeLa cells (ATCC), transient transfection with PepT1 DNA using FuGene6
T1 sequence (P46059 1-708): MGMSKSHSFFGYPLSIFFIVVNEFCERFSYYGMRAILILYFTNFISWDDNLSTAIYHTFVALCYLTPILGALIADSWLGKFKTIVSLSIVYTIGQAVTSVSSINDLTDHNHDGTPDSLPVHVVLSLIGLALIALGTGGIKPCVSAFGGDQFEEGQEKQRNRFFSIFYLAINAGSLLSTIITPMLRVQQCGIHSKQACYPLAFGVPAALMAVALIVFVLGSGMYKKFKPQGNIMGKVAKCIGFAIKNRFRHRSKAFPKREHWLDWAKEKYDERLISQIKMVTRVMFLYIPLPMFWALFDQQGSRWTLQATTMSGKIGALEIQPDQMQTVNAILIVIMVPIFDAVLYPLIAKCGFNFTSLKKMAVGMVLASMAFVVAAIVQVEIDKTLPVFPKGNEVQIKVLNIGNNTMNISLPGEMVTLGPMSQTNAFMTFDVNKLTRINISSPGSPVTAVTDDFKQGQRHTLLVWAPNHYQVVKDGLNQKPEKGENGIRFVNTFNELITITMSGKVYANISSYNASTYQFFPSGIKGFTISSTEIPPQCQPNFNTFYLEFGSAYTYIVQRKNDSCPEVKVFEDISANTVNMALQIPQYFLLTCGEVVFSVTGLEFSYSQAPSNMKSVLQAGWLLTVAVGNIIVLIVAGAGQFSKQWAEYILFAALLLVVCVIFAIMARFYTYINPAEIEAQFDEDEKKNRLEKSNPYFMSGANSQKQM
Protocol: HeLa cells, […], (American Type Culture Collection) are grown in Hyclone Medium (Invitrogen, Cat# SH30243) containing 10% fetal bovine serum (FBS), 0.1 mM non essential amino acids (NEAA), and 100 units/mL penicillin with 100 μg/mL streptomycin at 37° C. in a 5% CO2 humidified atmosphere. The cell line is used for up to 40 passages and then discarded. Frozen cells in 1 ml vials are thawed in water bath for 1-2 minutes and added to 5 mL of cell medium at 37° C. Each of the T-flasks is provided with 8.5 mL of the fresh medium and 1.5 mL of the cell stock. Cells are passaged twice during a week. This is achieved by rinsing the flasks with 10 mL of phosphate buffered saline-ethylene diaminetetra acetic acid (PBS-EDTA), adding 2 mL of trypsin for 2-5 minutes, to detach the cells, and adding 8 mL of fresh medium to inhibit further activity of trypsin. Each new flask receives a combination of 8.5 mL of fresh medium and 1.5 mL of cell stock, in order to obtain 1:6 cell dilution. Cells are incubated at 37° C., until ready for the uptake study.
Cells that are 70-80% confluent in the T-flasks are plated 1 day prior to the transfection procedure. The flask with the cell stock is treated with PBS-EDTA and trypsin to detach the cells, and transfection medium is used from this point. Transfection medium consists of Dulbecco's Modified Eagle Medium (DMEM)+NEAA. To each well, 0.5 mL of the cell mixture is added (1.3×10^5 is the desired cell concentration) and the cells are incubated at 37° C. overnight. Twenty four hours before the assay, cells are transfected with PEPT1. Transfection mixture is prepared by mixing 600 μL of serum free transfection medium, 18 μL of FuGene6 (Roche Diagnostics), and 11 μg of the PepT1 DNA. The transfection reagent-DNA complex is incubated for 20 minutes and 24 μL of the reagent-DNA complex is added to each well.
J. Pharm. Exper Ther. 310:437-445). […] Uptake media consists of 140 mM NaCl, 5.4 mM KCl, 1.8 mM CaCl2, 0.8 mM MgSO4, 5 mM Glucose, 25 mM tris(hydroxymethyl)aminomethane buffer (TRIS). The solution is then brought to pH 6.0 using 2-(N-morpholino)ethanesulfonic acid. The incubation volume is 500 μL and is performed at room temperature for 3 minutes. To stop the uptake at the conclusion of the incubation time, the uptake media is aspirated off of the cell monolayer and 500 μL of ice cold PBS added to the well. The cells are washed 3 times with 500 μL of room temperature PBS without Ca^+2 and Mg^+2. The cells are then lysed with 300 μL of 1% Triton X100 H2O solution. […] A no inhibitor control is established and the percent inhibition of each prodrug is calculated with respect to this control.
The incubation and sampling procedures are exactly the same as the PepT1 screen described above.

[4] = 1 h, 10 µM, pH 7.4
Protocol: Frozen human duodenum intestinal homogenates (1:2 tissue:buffer ratio using 100 mM Tris Phosphate buffer, pH 7.4) are obtained from Celsius In Vitro Technologies (Baltimore, Md.) that were both phenylmethylsulphonylfluoride (PMSF) and EDTA free.
All original tissue collections are performed at 4° C. and immediately frozen at −70° C. Human intestinal homogenates are thawed and diluted to a final protein concentration of 0.5 mg/mL in 100 mM PBS buffer, pH 7.4 immediately prior to the incubations.
Incubations are conducted in 96-well plates and all prodrugs are run in duplicate on each day. Stock prodrug solutions are prepared in water at a concentration of 1 mM. A 200 μL aliquot of 0.5 mg/mL intestinal homogenate and 196 μL of 100 mM PBS buffer are placed in a 96-well plate in a 37° C. water bath. Using a 96-well pipettor, 4 μL of the 1 mM prodrug solution is transferred into the homogenate. Immediately after addition of the prodrug (time zero) and after 1 hour incubation, 50 μL samples of the incubation mixture are removed using an automated disposable simultaneous 96 well pipettor and added directly to 200 μL of methanol quench solution containing 100 ng/mL of Internal Standard. The samples are then centrifuged at 3500 rpm for 5 minutes at 10° C. The supernatant (200 μL) is transferred to a final 96 well PCR plate and sealed for analysis by LC/MS/MS.
Concentrations of hydrolyzed active metabolite in the incubation mixtures are determined using LC/MS/MS detection on a Sciex API 4000 quadrapole mass spectrometer with Analyst version 1.4.2, TurbolonSpray, positive ionization, and Selected Reaction Monitoring (SRM). […]
Averages and standard deviations are calculated using Microsoft® Office Excel® 2007. Amount of hydrolysis is determined as a molar percentage of active metabolite formed relative to prodrug concentration added.

[5] = both, human, pH 7.4
Protocol: Liver S9 fractions are obtained from Xenotech LLC (Lenexa, Mo.). The lot is from a pool of two donors, one male and one female. The liver S9 fraction is prepared and diluted using a homogenization buffer consisting of 50 mM Tris, pH 7.4 at 4° C. and 150 mM potassium chloride without EDTA. Prodrugs are incubated in the liver homogenate for 2 hours at 37° C., after which the concentration of active metabolite is determined by LC/MS/MS. Hydrolysis of Clopidogrel to Clopidogrel Carboxylic Acid is utilized as an assay positive control.
To ensure hydrolysis is not due to chemical instability, prodrugs are also incubated with PBS buffer alone without liver S-9.
A mobile phase gradient is utilized starting mobile phase ratio A/B of 99.9/0.1 and finishing at 1/99.

[6] = molecular target: T2, human mGlu2 receptor (Homo sapiens, UniProt Q14416); assay: Human mGlu2 agonist FLIPR assay; format: cell-based; conditions: AV-12 cells expressing human mGlu2, EAAT1 and Gα15; relative EC50; ±5.9 SEM, n=3; read-out: EC50 in the hmGlu2 FLIPR assay
T2 construct: expressed in transfected cells; host or cells: AV-12 cells (Syrian hamster fibroblasts), co-transfected with rat EAAT1 and Galpha15
T2 sequence (Q14416 19-872): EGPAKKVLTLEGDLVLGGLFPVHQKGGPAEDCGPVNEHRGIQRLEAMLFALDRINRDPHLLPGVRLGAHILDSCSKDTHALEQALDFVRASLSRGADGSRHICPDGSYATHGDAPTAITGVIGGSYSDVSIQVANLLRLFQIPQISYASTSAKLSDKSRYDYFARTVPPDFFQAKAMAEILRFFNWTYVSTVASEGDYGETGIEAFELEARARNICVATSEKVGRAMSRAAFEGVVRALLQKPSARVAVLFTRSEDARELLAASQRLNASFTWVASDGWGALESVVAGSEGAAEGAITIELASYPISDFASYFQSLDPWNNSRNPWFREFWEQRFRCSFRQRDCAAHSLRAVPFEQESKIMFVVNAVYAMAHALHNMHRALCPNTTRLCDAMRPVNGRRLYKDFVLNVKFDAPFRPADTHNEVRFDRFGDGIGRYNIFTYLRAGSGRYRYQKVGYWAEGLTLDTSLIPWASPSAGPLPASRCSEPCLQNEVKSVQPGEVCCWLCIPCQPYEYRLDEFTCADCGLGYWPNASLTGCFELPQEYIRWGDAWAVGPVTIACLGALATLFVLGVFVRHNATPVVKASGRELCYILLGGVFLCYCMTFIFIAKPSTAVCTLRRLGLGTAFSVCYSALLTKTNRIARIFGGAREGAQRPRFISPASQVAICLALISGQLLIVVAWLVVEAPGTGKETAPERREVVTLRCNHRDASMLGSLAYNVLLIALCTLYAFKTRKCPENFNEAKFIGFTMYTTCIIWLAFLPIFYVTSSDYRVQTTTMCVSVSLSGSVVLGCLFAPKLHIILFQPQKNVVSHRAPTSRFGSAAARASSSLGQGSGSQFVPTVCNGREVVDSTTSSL
Excerpt: (§1) AV-12 cell lines, derived from Syrian Hamster fibroblasts and stably expressing the human mGlu2 or mGlu3 receptor and co-transfected with the rat glutamate transporter EAAT 1 (Excitatory Amino Acid Transporter 1) and the Gα15 subunit, are used for these studies. The expression of Gα15 allows Gi-coupled receptors to signal through the phospholipase C pathway, resulting in the ability to measure receptor activation by a fluorometric calcium response assay. […] Intracellular calcium levels are monitored before and after the addition of compounds using a Fluorometric Imaging Plate Reader (FLIPR, Molecular Devices). […] Results are analyzed using Prism v4.03 (GraphPad Software). […] After taking an initial 5-sec fluorescent read on the FLIPR instrument, a compound of the invention is added to the cell plate (50 μL per well). […] The compound effect is measured as maximal minus minimal peak heights in relative fluorescent units (RFUs) corrected for basal fluorescence measured in the absence of glutamate. […] Agonist effects are quantified as percent stimulation induced by compound alone relative to the maximal glutamate response. All data are calculated as relative EC50 values using a four-parameter logistic curve fitting program (ActivityBase v5.3.1.22).

[7] = molecular target: T3, human mGlu3 receptor (Homo sapiens, UniProt Q14832); assay: Human mGlu3 agonist FLIPR assay; format: cell-based; conditions: AV-12 cells expressing human mGlu3, EAAT1 and Gα15; relative EC50; ±52.5 SEM, n=8; read-out: EC50 in the hmGlu3 FLIPR assay
T3 construct: expressed in transfected cells; host or cells: AV-12 cells (Syrian hamster fibroblasts), co-transfected with rat EAAT1 and Galpha15
T3 sequence (Q14832 23-879): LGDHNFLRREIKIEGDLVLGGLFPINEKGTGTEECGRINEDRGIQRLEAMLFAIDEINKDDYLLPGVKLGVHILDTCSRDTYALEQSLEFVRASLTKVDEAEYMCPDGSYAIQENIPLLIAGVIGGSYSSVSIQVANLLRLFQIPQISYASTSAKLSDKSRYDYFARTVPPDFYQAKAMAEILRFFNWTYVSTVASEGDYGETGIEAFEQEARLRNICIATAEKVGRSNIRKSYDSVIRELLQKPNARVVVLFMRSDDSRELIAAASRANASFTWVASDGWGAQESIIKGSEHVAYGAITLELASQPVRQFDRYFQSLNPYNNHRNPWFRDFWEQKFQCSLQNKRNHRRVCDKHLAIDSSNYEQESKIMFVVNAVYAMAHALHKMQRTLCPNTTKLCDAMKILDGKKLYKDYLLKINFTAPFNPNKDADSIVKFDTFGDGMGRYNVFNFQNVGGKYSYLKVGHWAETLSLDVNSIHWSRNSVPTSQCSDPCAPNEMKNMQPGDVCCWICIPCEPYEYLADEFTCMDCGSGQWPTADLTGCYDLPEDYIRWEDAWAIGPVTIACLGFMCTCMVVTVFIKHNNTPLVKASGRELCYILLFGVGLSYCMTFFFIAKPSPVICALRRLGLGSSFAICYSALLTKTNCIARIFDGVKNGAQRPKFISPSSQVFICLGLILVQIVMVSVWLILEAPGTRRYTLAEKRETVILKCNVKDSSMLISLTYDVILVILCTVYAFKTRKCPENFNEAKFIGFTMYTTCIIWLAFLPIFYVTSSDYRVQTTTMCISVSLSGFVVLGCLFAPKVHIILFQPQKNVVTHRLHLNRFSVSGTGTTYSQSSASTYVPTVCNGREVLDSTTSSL
Excerpt: as §1

[8] = test system: male Sprague-Dawley rats; assay: Reversal of persistent pain induced by formalin injection; format: in vivo; conditions: ip, dosed 1 hour prior to intraplantar formalin, rat

IC50 ([3]; 0.0625 to 25 mM, read-out: hPepT1 [3H]Gly-Sar uptake inhibition IC50)	inhibition at 5000 µM ([3]; pH 6.0, 3 minutes, read-out: hPepT1 [3H]Gly-Sar uptake inhibition at 5 mM)	human intestinal hydrolysis relative to Internal Prodrug A [4]	Hydrolysis of Clopidogrel to Clopidogrel Carboxylic Acid (positive control) [5]	EC50 [6]	EC50 [7]	Structure (SMILES)	ED50 ([1]; Rattus norvegicus, p.o., overnight fasted rats, 4 hours prior to 5 mg/kg PCP)	T35 (dose producing a 35% reduction in stress-induced hyperthermic response) [2]	ED50 [8]	ED50 ([1]; 0.5 h, i.p., 30 minutes prior to 5 mg/kg PCP, rat)
1980 µM	89%	36%				C[C@H](N)C(=O)N[C@@]1(C(=O)O)CC2(CC2)[C@H]2[C@H](C(=O)O)[C@H]21.Cl [Example 5, (1S,2S,5R,6S)-2-[[(2S)-2-Aminopropanoyl]amino]spiro[bicyclo[3.1.0]hexane-4,1′-cyclopropane]-2,6-dicarboxylic acid hydrochloride]	2.95 mg/kg	6.4 mg/kg		
			73.0%			COC(=O)[C@H](c1ccccc1Cl)N1CCc2sccc2C1 [Clopidogrel]				
				0.039 µM	0.285 µM	N[C@@]1(C(=O)O)CC2(CC2)[C@H]2[C@H](C(=O)O)[C@H]21 [Example 2, (1S,2S,5R,6S)-2-Aminospiro[bicyclo[3.1.0]hexane-4,1′-cyclopropane]-2,6-dicarboxylic acid]		0.57 mg/kg	0.7 mg/kg	1.46 mg/kg
